Measured values: patent publication US12018021B2 (UCB Biopharma SRL, priority 2018, dated 2024)

Target: IgE-Tb / sFcεRIα-Y131A-AF488 (Homo sapiens, UniProt P01854, N146Q/N252Q)
Assay: IgE-Tb / sFcεRIα-Y131A-AF488 FRET assay (protocol for examples 234 to 501)
Assay type: binding
Settings: examples 234 to 501: compound with IgE-Tb 30 minutes before sFcεRIα-Y131A-AF488, incubated 18 hours at room temperature; read-out: Y131A FRET IC50 range
In short: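 Compounds (10-point 3-fold series, top usually 10 μM, 2% DMSO) preincubated 30 min with 5 nM IgE-Tb, then 25 nM sFcεRIα-Y131A-AF488 added; 18 h at room temperature in the dark. TR-FRET ratio 520/490 nm after 337 nm excitation, background-subtracted; IC50 by four-parameter logistic fit.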

Chain of IgE-Tb / sFcεRIα-Y131A-AF488 (P01854 whole entry N146Q/N252Q): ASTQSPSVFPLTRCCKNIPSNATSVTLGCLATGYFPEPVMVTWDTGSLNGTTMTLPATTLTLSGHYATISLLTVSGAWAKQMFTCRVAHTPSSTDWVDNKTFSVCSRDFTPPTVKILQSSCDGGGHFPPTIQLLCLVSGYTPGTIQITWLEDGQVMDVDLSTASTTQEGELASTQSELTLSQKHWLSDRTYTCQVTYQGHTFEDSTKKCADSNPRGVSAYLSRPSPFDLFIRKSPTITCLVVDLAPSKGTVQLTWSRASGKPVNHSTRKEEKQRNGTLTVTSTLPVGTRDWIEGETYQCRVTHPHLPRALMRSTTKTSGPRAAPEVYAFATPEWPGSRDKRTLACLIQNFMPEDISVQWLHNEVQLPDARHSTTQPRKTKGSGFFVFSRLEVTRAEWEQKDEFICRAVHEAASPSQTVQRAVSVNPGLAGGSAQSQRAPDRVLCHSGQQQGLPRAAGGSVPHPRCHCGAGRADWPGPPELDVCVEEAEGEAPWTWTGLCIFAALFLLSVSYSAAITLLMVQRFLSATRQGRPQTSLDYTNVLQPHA

Row | SMILES | IC50 [nM]
1 | O=C(NCC1CC1)c1c(NC(=O)C2CC2)sc2c1C[C@@H](Nc1nc3cccnc3s1)CC2 [Example 433] | < 1000
2 | CS(=N)(=O)c1cccc(Nc2nncn2[C@H]2CCc3sc(NC(=O)C4CC4)c(C(=O)NCC4CC4)c3C2)c1 (mixture of isomers) [Example 252, (5S)-2-(cyclopropanecarbonylamino)-N-(cyclopropylmethyl)-5-[3-[3-(methylsulfonimidoyl)anilino]-1,2,4-triazol-4-yl]-4,5,6,7-tetrahydrobenzothiophene-3-carboxamide] | < 1000
3 | Cn1nc(C(F)F)cc1Nc1nncn1[C@H]1CCc2sc(NC(=O)[C@@H]3C[C@@H]3F)c(C(=O)NCC3CC3)c2C1 (single isomer, unassigned) [Example 362] | < 1000
4 | Cn1nc(C(F)F)cc1Nc1nncn1[C@H]1CCc2sc(NC(=O)[C@H]3C[C@H](F)C3)c(C(=O)N[C@H]3CC34CC4)c2C1 (single isomer, unassigned) [Example 470] | < 1000
5 | Cc1nnc(-c2cc(Nc3nncn3[C@H]3CCc4sc(NC(=O)C5CC5)c(C(=O)NCC5CC5)c4C3)n(C)n2)o1 [Example 296, (5S)-2-cyclopropaneamido-N-(cyclopropylmethyl)-5-(3-{[1-methyl-3-(5-methyl-1,3,4-oxadiazol-2-yl)-1H-pyrazol-5-yl]amino}-4H-1,2,4-triazol-4-yl)-4,5,6,7-tetrahydro-1-benzothiophene-3-carboxamide] | < 1000
6 | C[S+]([O-])c1cccc(Nc2nncn2[C@H]2CCc3sc(NC(=O)C4CC45CC5)c(C(=O)NCC4CC4)c3C2)n1 (stereo partly drawn) [Example 255, (5S)—N-(cyclopropylmethyl)-5-[3-[(6-methylsulfinyl-2-pyridyl)amino]-1,2,4-triazo-4-yl]-2-(spiro[2.2]pentane-2-carbonylamino)-4,5,6,7-tetrahydrobenzothiophene-3-carboxamide] | < 1000
7 | Cn1nc(OC(F)F)cc1Nc1nncn1[C@H]1CCc2sc(NC(=O)C3CC3)c(C(=O)NC[C@H]3C[C@H](F)C3)c2C1 [Example 456, (5S)-2-(cyclopropanecarbonylamino)-5-[3-[[5-(difluoromethoxy)-2-methylpyrazol-3-yl]amino]-1,2,4-triazol-4-yl]-N-[trans-(3-fluorocyclobutyl)methyl]-4,5,6,7-tetrahydro-1-benzothiophene-3-carboxamide] | < 1000
8 | Cn1nc(OC(F)F)cc1Nc1nncn1[C@H]1CCc2sc(NC(=O)[C@H]3C[C@@H]3F)c(C(=O)NC[C@@H]3C[C@@H]3F)c2C1 [Example 322, (5S)-5-[3-[[5-(difluoromethoxy)-2-methylpyrazol-3-yl]amino]-1,2,4-triazol-4-yl]-2-[[(1R,2S)-2-fluorocyclopropanecarbonyl]amino]-N-[[(1S,2S)-2-fluorocyclopropyl]methyl]-4,5,6,7-tetrahydro-1-benzothiophene-3-carboxamide] | < 1000
9 | Cn1nc(OC(F)F)cc1Nc1nncn1[C@H]1CCc2sc(NC(=O)C3CC3)c(C(=O)NCC3CC34CC4)c2C1 (stereo partly drawn) [Example 444, (5S)-2-(cyclopropanecarbonylamino)-5-[3-[[5-(difluoromethoxy)-2-methylpyrazol-3-yl]amino]-1,2,4-triazol-4-yl]-N-(spiro[2.2]pentan-2-ylmethyl)-4,5,6,7-tetrahydro-1-benzothiophene-3-carboxamide] | < 1000
10 | Cn1nc(OC(F)F)cc1Nc1nncn1[C@H]1CCc2sc(NC(=O)[C@H]3C[C@@H]3F)c(C(=O)NC[C@H]3C[C@H]3F)c2C1 [Example 380, (5S)-5-[3-[[5-(difluoromethoxy)-2-methylpyrazol-3-yl]amino]-1,2,4-triazol-4-yl]-2-[[(1R,2S)-2-fluorocyclopropanecarbonyl]amino]-N-[[(1R,2R)-2-fluorocyclopropyl]methyl]-4,5,6,7-tetrahydro-1-benzothiophene-3-carboxamide] | < 1000
11 | CC(=O)N1CCC(Nc2nncn2[C@H]2CCc3sc(NC(=O)C4CC4)c(C(=O)NCC4CC4)c3C2)C1C (stereo partly drawn) [Example 273, (5S)-5-[3-[(1-acetyl-2-methyl-pyrrolidin-3-yl)amino]-1,2,4-triazol-4-yl]-2-(cyclopropanecarbonylamino)-N-(cyclopropylmethyl)-4,5,6,7-tetrahydrobenzothiophene-3-carboxamide] | < 1000
12 | C[S@@](=N)(=O)c1cccc(Nc2nncn2[C@H]2CCc3sc(NC(=O)C4CC4)c(C(=O)NCC4CC4)c3C2)c1 (single isomer, unassigned) [Example 254] | < 1000
13 | C[C@H]1C[C@@H]1C(=O)Nc1sc2c(c1C(=O)NCC1CC1(F)F)C[C@@H](n1cnnc1Nc1cc(C(F)F)nn1C)CC2 (stereo partly drawn) [Example 441, (5S)—N-[(2,2-difluorocyclopropyl)methyl]-5-[3-[[5-(difluoromethyl)-2-methylpyrazol-3-yl]amino]-1,2,4-triazol-4-yl]-2-[[(1S,2S)-2-methylcyclopropanecarbonyl]amino]-4,5,6,7-tetrahydro-1-benzothiophene-3-carboxamide] | < 1000
14 | CC(=O)N1CCC(C)(Nc2nncn2[C@H]2CCc3sc(NC(=O)C4CC4)c(C(=O)NCC4CC4)c3C2)C1 (mixture of isomers) [Example 238, (5S)-5-{3-[(1-acetyl-3-methylpyrrolidin-3-yl)amino]-4H-1,2,4-triazol-4-yl}-2-cyclopropaneamido-N-(cyclopropylmethyl)-4,5,6,7-tetrahydro-1-benzothiophene-3-carboxamide] | < 1000
15 | Cn1nc(OCC(F)(F)F)cc1Nc1nncn1[C@H]1CCc2sc(NC(=O)[C@H]3C[C@@H]3F)c(C(=O)NCC3CC3)c2C1 [Example 426, (5S)—N-(cyclopropylmethyl)-2-[[(1R,2S)-2-fluorocyclopropanecarbonyl]amino]-5-[3-[[2-methyl-5-(2,2,2-trifluoroethoxy)pyrazol-3-yl]amino]-1,2,4-triazol-4-yl]-4,5,6,7-tetrahydrobenzothiophene-3-carboxamide] | < 1000
16 | Cn1nc(OC(F)F)cc1Nc1nncn1[C@H]1CCc2sc(NC(=O)[C@H]3C[C@H]3F)c(C(=O)NCC3CC3)c2C1 (mixture of isomers) [Example 348, (5S)—N-(cyclopropylmethyl)-5-[3-[[5-(difluoromethoxy)-2-methylpyrazol-3-yl]amino]-1,2,4-triazol-4-yl]-2-[[(1RS,2RS)-2-fluorocyclopropanecarbonyl]amino]-4,5,6,7-tetrahydro-1-benzothiophene-3-carboxamide] | < 1000
17 | CS(=O)(=O)N1CC[C@@H](Nc2nncn2[C@H]2CCc3sc(NC(=O)C4CC4)c(C(=O)NCC4CC4)c3C2)C1 [Example 268, (5S)-2-(cyclopropanecarbonylamino)-N-(cyclopropylmethyl)-5-[3-[[(3R)-1-methylsulfonylpyrrolidin-3-yl]amino]-1,2,4-triazol-4-yl]-4,5,6,7-tetrahydrobenzothiophene-3-carboxamide] | < 1000
18 | O=C(NCC1CC1)c1c(NC(=O)C2CC2)sc2c1C[C@@H](n1cnnc1Nc1ccnc(Cl)c1)CC2 [Example 431, (5S)-5-[3-[(2-chloro-4-pyridyl)amino]-1,2,4-triazol-4-yl]-2-(cyclopropanecarbonylamino)-N-(cyclopropylmethyl)-4,5,6,7-tetrahydrobenzothiophene-3-carboxamide] | < 1000
19 | Cn1nc(C(F)F)cc1Nc1nncn1[C@H]1CCc2sc(NC(=O)[C@@H]3C[C@H]3F)c(C(=O)NCC3CC3)c2C1 (single isomer, unassigned) [Example 367] | < 1000
